The values below come from US20250009745A1, “CDK INHIBITOR” (SHANGHAI QILU PHARMACEUTICAL RESEARCH AND DEVELOPMENT …, priority 2021, published 2025).

What all share (assay): CDK enzymology experiment in vitro, capillary mobility shift assay (MSA)
Common to all, as to format: biochemical

The target of one test is T1, CDK4 (Homo sapiens, UniProt P11802).
T1 construct: purchased Carna Company
The following applies: read-out: CDK4 (nM) inhibitory IC50. Summed up:
(§1)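 Recombinant kinases tested against peptide substrates in 1× kinase buffer, with compound added as a 100-fold DMSO stock. Top concentration 1, 10 or 30 μM, 3-fold dilutions over 10 points, in duplicate. Substrate conversion read by Caliper EZ Reader, normalised to no-enzyme and no-compound controls, and IC50 fitted with a variable-slope log(inhibitor)–response model.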

In a further test the target is T2, CDK2 (Homo sapiens, UniProt P24941).
T2 construct: purchased Carna Company
The following applies: read-out: CDK2 (nM) inhibitory IC50. Summed up:
as §1

For another test, the target named is T3, CDK6 (Homo sapiens, UniProt Q00534).
T3 construct: purchased Carna Company
The following applies: read-out: CDK6 (nM) inhibitory IC50. As for the experimental part: CDK1/CDK2/CDK4/CDK6/CDK7/CDK9 were purchased from Carna Company; Carliper substrate CTD3/substrate 18/substrate 8 were purchased from Gil Biochemical Company; Dinaciclib/Palbociclib were purchased from Selleckchem Company; DMSO was purchased from Sigma Company; 384-well plates were purchased from Corning Company.
• (1) Preparation of 1×Kinase buffer. • (2) Preparation of compound concentration gradient: Test concentration of the test compound was started at 1 μM, 10 μM or 30 μM, 3-fold dilution, 10 concentrations, detected in duplicate. […] Liquid handler Echo 550 was used to transfer 250 nL of 100-fold final concentration of the compound to the target plate 384-well plate. […] The 384-well plate was centrifuged at 1000 rpm for 30 seconds, and shaken to mix uniformly. • (10) The conversion rate was read with Caliper EZ Reader.
Where, conversion %_sample is the readings of conversion rate of the sample; conversion %_min: the average value of negative control wells, representing the readings of conversion rate of wells without enzyme activity; conversion %_max: the average value of positive control wells, representing the readings of conversion rate of wells without compound inhibition.
Taking the log value of the concentration as the X-axis, and the percentage inhibition rate as the Y-axis, the dose-effect curve was fitted using the log(inhibitor) vs. response—Variable slope of the analysis software GraphPad Prism 5 so as to obtain the IC50 value of each compound on the enzyme activity.
Y=Bottom+(Top−Bottom)/(1+10^((Log IC50−X)*HillSlope)). Calculation formula: […]

T1 sequence (P11802 whole entry): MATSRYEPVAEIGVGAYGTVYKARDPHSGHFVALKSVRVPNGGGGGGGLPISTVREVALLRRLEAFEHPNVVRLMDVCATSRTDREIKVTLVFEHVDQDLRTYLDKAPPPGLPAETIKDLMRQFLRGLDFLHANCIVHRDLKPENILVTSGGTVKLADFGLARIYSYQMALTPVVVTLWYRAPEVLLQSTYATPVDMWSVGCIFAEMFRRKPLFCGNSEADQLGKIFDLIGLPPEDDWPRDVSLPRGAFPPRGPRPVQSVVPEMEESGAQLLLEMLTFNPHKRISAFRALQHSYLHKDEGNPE
T1 sequence (P30281 whole entry partner): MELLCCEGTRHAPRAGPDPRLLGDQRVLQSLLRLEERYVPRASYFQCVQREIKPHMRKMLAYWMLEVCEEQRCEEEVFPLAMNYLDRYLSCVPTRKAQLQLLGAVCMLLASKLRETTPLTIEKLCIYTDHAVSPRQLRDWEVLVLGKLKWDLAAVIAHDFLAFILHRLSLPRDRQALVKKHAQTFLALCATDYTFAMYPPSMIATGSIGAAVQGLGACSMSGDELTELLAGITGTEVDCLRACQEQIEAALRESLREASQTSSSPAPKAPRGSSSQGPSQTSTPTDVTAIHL
T3 sequence (Q00534 whole entry): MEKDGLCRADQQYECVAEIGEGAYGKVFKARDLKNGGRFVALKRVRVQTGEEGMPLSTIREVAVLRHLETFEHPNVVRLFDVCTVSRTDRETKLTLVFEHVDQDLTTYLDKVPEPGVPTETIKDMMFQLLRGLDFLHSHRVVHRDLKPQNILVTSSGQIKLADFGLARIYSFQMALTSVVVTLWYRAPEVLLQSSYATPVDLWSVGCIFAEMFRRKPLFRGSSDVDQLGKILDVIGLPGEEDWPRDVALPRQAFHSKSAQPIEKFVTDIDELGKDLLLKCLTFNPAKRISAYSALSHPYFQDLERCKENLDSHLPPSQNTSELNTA
T3 sequence (P30281 whole entry partner): as the sequence (P30281 whole entry partner) above

As usually defined, the IC50 is the concentration at which inhibition is half-maximal. Take `O=S(=O)([C@H]1CCCNC1)N1CCC(Nc2ncc(C(F)(F)F)c(NC3CCCC3)n2)CC1` [Compound 163]: the IC50 on CDK4 is 2.5 to 10 nM; on CDK2 it was 2.5 to 10 nM; at CDK6, 0.5 to 2.5 nM.

With `Cn1cc(-c2ccc(S(=O)(=O)N3CCC(Nc4ncc(C#N)c(N[C@H]5CC[C@@H](O)C5)n4)CC3)cc2)cn1` (relative stereo) [Compound 62], the IC50 on CDK4, at CDK2 and on CDK6 was 0.5 to 2.5 nM in each case.

Consider `O=S(=O)(c1ccc(N2CC[C@@H](O)C2)cc1)N1CCC(Nc2ncc(C(F)(F)F)c(O[C@H]3CCOC3)n2)CC1` [Compound 140], for which the IC50 on CDK4, at CDK2 and on CDK6 was 0.5 to 2.5 nM throughout.

For the compound `CN1CC=C(c2ccc(S(=O)(=O)N3CCC(Nc4ncc(C#N)c(NC5CCCC5)n4)CC3)cc2)CC1` [Example 16, 4-(Cyclopentylamino)-2-((1-((4-(1-methyl-1,2,3,6-tetrahydropyridin-4-yl)phenyl)sulfonyl)piperidin-4-yl)amino)pyrimidine-5-carbonitrile], the IC50 on CDK4, on CDK2 and at CDK6 was 0.5 to 2.5 nM throughout.

For the compound `C[C@H]1CN(c2ccc(S(=O)(=O)N3CCC(Nc4ncc(C(F)(F)F)c(O[C@H]5CCOC5)n4)CC3)cn2)C[C@H](C)N1` [Compound 170], the IC50 on CDK4 was 0.5 to 2.5 nM; on CDK2, less than 0.5 nM; at CDK6, 0.5 to 2.5 nM.

Consider `N#Cc1cnc(NC2CCN(S(=O)(=O)c3ccc(C4CCNCC4)cc3)CC2)nc1NC1CCCC1(F)F` (stereo not drawn) [Compound 138], for which the IC50 at CDK4, at CDK2 and on CDK6 was 0.5 to 2.5 nM each time.

Turning to `O=S(=O)(c1ccc(C2CCNCC2)nc1)N1CCC(Nc2ncc(C(F)(F)F)c(O[C@H]3CCOC3)n2)CC1` [Compound 174], the IC50 at CDK4 was 0.5 to 2.5 nM; on CDK2, less than 0.5 nM; on CDK6, 0.5 to 2.5 nM.

On to `C[C@H]1CNCCN1c1ccc(S(=O)(=O)N2CCC(Nc3ncc(C(F)(F)F)c(O[C@H]4CCOC4)n3)CC2)cc1` [Compound 198], for which the IC50 at CDK4, at CDK2 and at CDK6 was 0.5 to 2.5 nM in each case.

As for `N#Cc1cnc(NC2CCN(S(=O)(=O)c3ccc(C4CCNCC4)cc3)CC2)nc1NC1CCCC1` [Compound 101], the IC50 on CDK4, on CDK2 and on CDK6 was 0.5 to 2.5 nM in each case.

For the compound `O=S(=O)(c1ccc(C2=CCNCC2)cc1)N1CCC(Nc2ncc(C(F)(F)F)c(N[C@H]3CCOC3)n2)CC1` [Compound 93], the IC50 lay in the range of 2.5 to 10 nM at CDK4, 0.5 to 2.5 nM at CDK2 and 0.5 to 2.5 nM on CDK6.

`O=S(=O)(c1ccc(N2C3CCC2CNC3)nc1)N1CCC(Nc2ncc(C(F)(F)F)c(O[C@H]3CCOC3)n2)CC1` [Compound 183]: the results for the IC50 on CDK4, at CDK2 and on CDK6 were 0.5 to 2.5 nM, less than 0.5 nM and 0.5 to 2.5 nM, respectively.

With `N#Cc1cnc(NC2CCN(S(=O)(=O)c3ccc(N4CCNC(=O)C4)cc3)CC2)nc1NC1CCCC1` [Compound 103], the IC50 was in the range of 2.5 to 10 nM at CDK4, 0.5 to 2.5 nM on CDK2 and 0.5 to 2.5 nM on CDK6.

`Cc1cc(S(=O)(=O)N2CCC(Nc3ncc(C(F)(F)F)c(O[C@H]4CCOC4)n3)CC2)cnc1N1CCNCC1` [Compound 175]: the IC50 at CDK4 was 0.5 to 2.5 nM; at CDK2, less than 0.5 nM; at CDK6, 0.5 to 2.5 nM.

As to `Cn1cc(S(=O)(=O)N2CCC(Nc3ncc(C#N)c(N(C4CCCC4)C4CC4)n3)CC2)cn1` [Compound 82], the IC50 on CDK4 lay within 2.5 to 10 nM; on CDK2, 0.5 to 2.5 nM; at CDK6, 0.5 to 2.5 nM.

For the compound `N#Cc1cnc(NC2CCN(S(=O)(=O)c3ccc(N4CCOCC4)cc3)CC2)nc1NC1CCCC1` [Compound 94], the IC50 on CDK4 was in the range of 2.5 to 10 nM; at CDK2, 0.5 to 2.5 nM; at CDK6, 10 to 50 nM.

As to `C[C@H]1CN(c2ccc(S(=O)(=O)N3CCC(Nc4ncc(C(F)(F)F)c(O[C@H]5CCOC5)n4)CC3)cc2)CCN1` [Compound 186], the IC50 at CDK4 was 0.5 to 2.5 nM; at CDK2 it was less than 0.5 nM; on CDK6 it was 0.5 to 2.5 nM.

Regarding `Nc1ccc(S(=O)(=O)N2CCC(Nc3ncc(C(F)(F)F)c(O[C@H]4CCOC4)n3)CC2)cn1` [Compound 123], the concentration for half-maximal inhibition (IC50) on CDK4 was 2.5 to 10 nM; on CDK2 it was less than 0.5 nM; on CDK6, 10 to 50 nM.

`Cn1cc(S(=O)(=O)N2CCC(Nc3ncc([N+](=O)[O-])c(NC4CCCC4)n3)CC2)cn1` [Compound 84]: the concentration for half-maximal inhibition (IC50) on CDK4 is 2.5 to 10 nM; at CDK2 it was 10 to 50 nM; on CDK6, 0.5 to 2.5 nM.

As to `Cn1cc(-c2ccc(S(=O)(=O)N3CCC(Nc4ncc(C#N)c(N[C@H]5CCC[C@H]5O)n4)CC3)cc2)cn1` [Compound 51], the IC50 lay in the range of 2.5 to 10 nM on CDK4, 0.5 to 2.5 nM at CDK2 and 0.5 to 2.5 nM on CDK6.

For `C[C@@H]1CN(c2ccc(S(=O)(=O)N3CCC(Nc4ncc(C(F)(F)F)c(O[C@H]5CCOC5)n4)CC3)cc2)CCN1` [Compound 185], the concentration for half-maximal inhibition (IC50) was 0.5 to 2.5 nM on CDK4, less than 0.5 nM at CDK2 and 0.5 to 2.5 nM at CDK6.

`O=S(=O)(c1ccc(C2CCNCC2)cc1)N1CCC(Nc2ncc(C(F)(F)F)c(O[C@H]3CCOC3)n2)CC1` [Compound 130]: the IC50 at CDK4 was 0.5 to 2.5 nM; on CDK2 it was less than 0.5 nM; on CDK6, 0.5 to 2.5 nM.

As for `O=S(=O)(c1ccc(C2CCNCC2)cn1)N1CCC(Nc2ncc(C(F)(F)F)c(O[C@H]3CCOC3)n2)CC1` [Compound 177], the figures for the IC50 at CDK4, at CDK2 and on CDK6 were 0.5 to 2.5 nM, less than 0.5 nM and 0.5 to 2.5 nM, respectively.

`Cc1cc(S(=O)(=O)N2CCC(Nc3ncc(C(F)(F)F)c(O[C@H]4CCOC4)n3)CC2)ccc1C1=CCCNC1` [Compound 196]: the IC50 at CDK4 was 0.5 to 2.5 nM; at CDK2, less than 0.5 nM; at CDK6, 0.5 to 2.5 nM.

For `N#Cc1cnc(NC2CCN(S(=O)(=O)c3ccc(N4CCC(O)CC4)cc3)CC2)nc1NC1CCCC1` [Compound 107], the IC50 is 0.5 to 2.5 nM on CDK4, less than 0.5 nM on CDK2 and 0.5 to 2.5 nM on CDK6.

With `O=S(=O)([C@@H]1CCCNC1)N1CCC(Nc2ncc(C(F)(F)F)c(NC3CCCC3)n2)CC1` [Compound 162], the IC50 on CDK4 fell in the range of 2.5 to 10 nM; at CDK2, 2.5 to 10 nM; at CDK6, 10 to 50 nM.

As to `CN1CCN(c2ccc(S(=O)(=O)N3CCC(Nc4ncc(C(F)(F)F)c(O[C@H]5CCOC5)n4)CC3)cc2)CC1` [Compound 204], the IC50 at CDK4 is 0.5 to 2.5 nM; on CDK2, less than 0.5 nM; at CDK6, 0.5 to 2.5 nM.

On to `O=S(=O)(c1ccc(N2CCNCC2)cn1)N1CCC(Nc2ncc(C(F)(F)F)c(O[C@H]3CCOC3)n2)CC1` [Compound 178], for which the IC50 was 0.5 to 2.5 nM at CDK4, less than 0.5 nM on CDK2 and 0.5 to 2.5 nM on CDK6.

For `CN1CCC(c2ccc(S(=O)(=O)N3CCC(Nc4ncc(C#N)c(NC5CCCC5)n4)CC3)cc2)CC1` [Example 17, 4-(Cyclopentylamino)-2-((1-((4-(1-methylpiperidin-4-yl)phenyl)sulfonyl)piperidin-4-yl)amino)pyrimidine-5-carbonitrile], the IC50 at CDK4, at CDK2 and on CDK6 was 0.5 to 2.5 nM throughout.

For the compound `COc1cc(S(=O)(=O)N2CCC(Nc3ncc(C(F)(F)F)c(O[C@H]4CCOC4)n3)CC2)ccc1C1=CCNCC1` [Compound 194], the IC50 at CDK4, at CDK2 and at CDK6 was 0.5 to 2.5 nM in each case.
